Earlier results as cited in patent US11844783B2, “Formulations of bendamustine” (Eagle Pharmaceuticals, Inc., priority 2010, dated 2023).

Conditions: liquid form

In the case of `Cn1c(CCCC(=O)O)nc2cc(N(CCCl)CCCl)ccc21` [bendamustine, Bendamustine], the stability in water is given as “measured in hours”.
